Data: ChEMBL document CHEMBL5365394, “Design, synthesis and biological evaluation of novel spiro-quinazolinone derivatives as chitin synthase inhibitors and antifungal agents” (Eur J Med Chem, 2023)
Converted amounts (≈) assume the structure as drawn. *1 amine or outer side, *2 acyl side, *3 side chain or, on linkers, in order; H or OH if unused. Where a SMILES comes first, the peptide text is derived from it. Bridges are numbered along the chain shown (N, C = ends). [ ]: non-standard residue; d: D form. The star is where a group is joined. hTyr(3S-OH,4S-OH,3'-OSO3H) = N[C@H](C(=O)O)[C@H](O)[C@@H](O)c1ccc(O)c(OS(=O)(=O)O)c1; Orn(4R-OH,5R-OH) = O=C([C@H](C[C@@H](O)[C@@H](O)N[*:3])N[*:1])[*:2]; Pro(3S-OH,4S-Me) = C[C@H]1CN[C@H](C(=O)O)[C@H]1O; X1 = CCCCCOc1ccc(-c2cc(-c3ccc(C(=O)*)cc3)no2)cc1; Gln(3R-OH) = NC(=O)C[C@@H](O)[C@H](N)C(=O)O; Hyp = O=C(O)[C@@H]1C[C@@H](O)CN1

Legend:
Aspergillus fumigatus = assay: Antifungal activity against Aspergillus fumigatus GIMCC 3.19 assessed as fungal growth inhibition incubated for 24 hrs by two-fold serial dilution method; format: functional
Cryptococcus neoformans = assay: Antifungal activity against Cryptococcus neoformans ATCC 32719 assessed as fungal growth inhibition incubated for 24 hrs by two-fold serial dilution method; format: functional
Candida tropicalis = assay: Inhibition of Candida tropicalis ATCC 750 chitin synthase using […] as substrate at 300 ug/ml incubated for 1 hr by absorbance based assay relative to control; settings: dose 300.0 µg/ml
[1] = Inhibition of Candida tropicalis ATCC 750 chitin synthase using UDP-GlcNAc as substrate incubated for 1 hr by absorbance based assay
Aspergillus flavus = assay: Antifungal activity against Aspergillus flavus ATCC 16870 assessed as fungal growth inhibition incubated for 24 hrs by two-fold serial dilution method; format: functional
Candida albicans [2] = assay: Antifungal activity against Candida albicans ATCC 76615 assessed as fungal growth inhibition incubated for 24 hrs by two-fold serial dilution method; format: functional
Candida albicans [3] = assay: Antifungal activity against Micafungin-resistant Candida albicans ATCC 76615R assessed as fungal growth inhibition; format: functional

| Structure (SMILES) | MIC (Aspergillus fumigatus) [µg/mL] | MIC (Cryptococcus neoformans) [µg/mL] | inhibition (Candida tropicalis) [%] | IC50 [1] [µM] | MIC (Aspergillus flavus) [µg/mL] | MIC (Candida albicans [2]) [µg/mL] | MIC (Candida albicans [3]) [µg/mL] |
| --- | --- | --- | --- | --- | --- | --- | --- |
| O=C(/C=C/C(=O)Nc1ccc2c(c1)C(=O)NC1(CCSC1)N2)Nc1cccc(C(F)(F)F)c1 (stereo not drawn) | 64 (≈ 134 µM) | 64 (≈ 134 µM) | 58.1 | 353 | 64 (≈ 134 µM) | 128 (≈ 269 µM) | – |
| O=C(/C=C/C(=O)Nc1ccc2c(c1)C(=O)NC1(CCSC1)N2)Nc1ccc(F)cc1 (stereo not drawn) | 128 (≈ 300 µM) | 64 (≈ 150 µM) | 54.6 | 593 | 128 (≈ 300 µM) | 64 (≈ 150 µM) | – |
| CCCCCOc1ccc(-c2cc(-c3ccc(C(=O)N[C@H]4C[C@@H](O)[C@@H](O)NC(=O)[C@@H]5[C@@H](O)[C@@H](C)CN5C(=O)[C@H]([C@H](O)CC(N)=O)NC(=O)[C@H]([C@H](O)[C@@H](O)c5ccc(O)c(OS(=O)(=O)O)c5)NC(=O)[C@@H]5C[C@@H](O)CN5C(=O)[C@H]([C@@H](C)O)NC4=O)cc3)no2)cc1 [MICAFUNGIN] (X1-[Orn(4R-OH,5R-OH)]T[Hyp][hTyr(3S-OH,4S-OH,3'-OSO3H)][Gln(3R-OH)][Pro(3S-OH,4S-Me)]; lactam 1-C) | – | – | – | – | – | – | 256 (≈ 202 µM) |
| O=C(/C=C/C(=O)Nc1ccc2c(c1)C(=O)NC1(CCCC1)N2)Nc1ccc(Cl)cc1 | 128 (≈ 301 µM) | 128 (≈ 301 µM) | 43.1 | – | 128 (≈ 301 µM) | 256 (≈ 603 µM) | – |
| Cc1ccc(NC(=O)/C=C/C(=O)Nc2ccc3c(c2)C(=O)NC2(CCSC2)N3)cc1 (stereo not drawn) | 128 (≈ 303 µM) | 128 (≈ 303 µM) | 48.2 | 883 | 128 (≈ 303 µM) | 64 (≈ 151 µM) | – |
| O=C(/C=C/C(=O)Nc1ccccc1Cl)Nc1ccc2c(c1)C(=O)NC1(CCCC1)N2 | 256 (≈ 603 µM) | 128 (≈ 301 µM) | 38.7 | – | 256 (≈ 603 µM) | 128 (≈ 301 µM) | – |
| O=C(/C=C/C(=O)Nc1ccc2c(c1)C(=O)NC1(CCOC1)N2)Nc1ccc(Cl)cc1 (stereo not drawn) | 128 (≈ 300 µM) | 128 (≈ 300 µM) | 49.2 | – | 128 (≈ 300 µM) | 128 (≈ 300 µM) | – |

More lines, main results first:

| MIC (Aspergillus fumigatus) [µg/mL] | MIC (Cryptococcus neoformans) [µg/mL] | inhibition (Candida tropicalis) [%] | IC50 [1] [µM] | MIC (Aspergillus flavus) [µg/mL] | MIC (Candida albicans [2]) [µg/mL] | Structure (SMILES) | MIC (Candida albicans [3]) [µg/mL] |
| --- | --- | --- | --- | --- | --- | --- | --- |
| 128 (≈ 300 µM) | 128 (≈ 300 µM) | 52.2 | 653 | 128 (≈ 300 µM) | 64 (≈ 150 µM) | O=C(/C=C/C(=O)Nc1ccccc1F)Nc1ccc2c(c1)C(=O)NC1(CCSC1)N2 (stereo not drawn) | – |
| 64 (≈ 131 µM) | 32 (≈ 65.7 µM) | 67.5 | 153 | 32 (≈ 65.7 µM) | 32 (≈ 65.7 µM) | O=C(/C=C/C(=O)Nc1ccc2c(c1)C(=O)NC1(CCSC1)N2)Nc1cccc(Br)c1 (stereo not drawn) | – |
| 64 (≈ 144 µM) | 64 (≈ 144 µM) | 58 | 433 | 128 (≈ 289 µM) | 64 (≈ 144 µM) | O=C(/C=C/C(=O)Nc1ccc2c(c1)C(=O)NC1(CCSC1)N2)Nc1ccc(Cl)cc1 (stereo not drawn) | – |
| 64 (≈ 144 µM) | 64 (≈ 144 µM) | 58.4 | 420 | 64 (≈ 144 µM) | 32 (≈ 72.2 µM) | O=C(/C=C/C(=O)Nc1ccccc1Cl)Nc1ccc2c(c1)C(=O)NC1(CCSC1)N2 (stereo not drawn) | – |
